Measurements published in patent US7429660B2, “ATM inhibitors” (Kudos Pharmaceuticals Limited, priority 2003, dated 2008).

These molecules were tested against T1, ATM protein immunoprecipitated from HeLa cell nuclear extract (Homo sapiens, UniProt Q13315) (assay: In vitro ATM inhibition assay (phosphorylation of GSTp53N66 on serine 15, chemiluminescent detection)). Settings: read-out: IC50 values (the concentration at which 50% of the enzyme activity is inhibited), ATM inhibition.
T1 construct: ATM protein was immunoprecipitated from HeLa cell nuclear extract; endogenous in cells; host or cells: HeLa cell nuclear extract (immunoprecipitated with rabbit polyclonal anti-ATM antiserum)
T1 sequence (Q13315 whole entry): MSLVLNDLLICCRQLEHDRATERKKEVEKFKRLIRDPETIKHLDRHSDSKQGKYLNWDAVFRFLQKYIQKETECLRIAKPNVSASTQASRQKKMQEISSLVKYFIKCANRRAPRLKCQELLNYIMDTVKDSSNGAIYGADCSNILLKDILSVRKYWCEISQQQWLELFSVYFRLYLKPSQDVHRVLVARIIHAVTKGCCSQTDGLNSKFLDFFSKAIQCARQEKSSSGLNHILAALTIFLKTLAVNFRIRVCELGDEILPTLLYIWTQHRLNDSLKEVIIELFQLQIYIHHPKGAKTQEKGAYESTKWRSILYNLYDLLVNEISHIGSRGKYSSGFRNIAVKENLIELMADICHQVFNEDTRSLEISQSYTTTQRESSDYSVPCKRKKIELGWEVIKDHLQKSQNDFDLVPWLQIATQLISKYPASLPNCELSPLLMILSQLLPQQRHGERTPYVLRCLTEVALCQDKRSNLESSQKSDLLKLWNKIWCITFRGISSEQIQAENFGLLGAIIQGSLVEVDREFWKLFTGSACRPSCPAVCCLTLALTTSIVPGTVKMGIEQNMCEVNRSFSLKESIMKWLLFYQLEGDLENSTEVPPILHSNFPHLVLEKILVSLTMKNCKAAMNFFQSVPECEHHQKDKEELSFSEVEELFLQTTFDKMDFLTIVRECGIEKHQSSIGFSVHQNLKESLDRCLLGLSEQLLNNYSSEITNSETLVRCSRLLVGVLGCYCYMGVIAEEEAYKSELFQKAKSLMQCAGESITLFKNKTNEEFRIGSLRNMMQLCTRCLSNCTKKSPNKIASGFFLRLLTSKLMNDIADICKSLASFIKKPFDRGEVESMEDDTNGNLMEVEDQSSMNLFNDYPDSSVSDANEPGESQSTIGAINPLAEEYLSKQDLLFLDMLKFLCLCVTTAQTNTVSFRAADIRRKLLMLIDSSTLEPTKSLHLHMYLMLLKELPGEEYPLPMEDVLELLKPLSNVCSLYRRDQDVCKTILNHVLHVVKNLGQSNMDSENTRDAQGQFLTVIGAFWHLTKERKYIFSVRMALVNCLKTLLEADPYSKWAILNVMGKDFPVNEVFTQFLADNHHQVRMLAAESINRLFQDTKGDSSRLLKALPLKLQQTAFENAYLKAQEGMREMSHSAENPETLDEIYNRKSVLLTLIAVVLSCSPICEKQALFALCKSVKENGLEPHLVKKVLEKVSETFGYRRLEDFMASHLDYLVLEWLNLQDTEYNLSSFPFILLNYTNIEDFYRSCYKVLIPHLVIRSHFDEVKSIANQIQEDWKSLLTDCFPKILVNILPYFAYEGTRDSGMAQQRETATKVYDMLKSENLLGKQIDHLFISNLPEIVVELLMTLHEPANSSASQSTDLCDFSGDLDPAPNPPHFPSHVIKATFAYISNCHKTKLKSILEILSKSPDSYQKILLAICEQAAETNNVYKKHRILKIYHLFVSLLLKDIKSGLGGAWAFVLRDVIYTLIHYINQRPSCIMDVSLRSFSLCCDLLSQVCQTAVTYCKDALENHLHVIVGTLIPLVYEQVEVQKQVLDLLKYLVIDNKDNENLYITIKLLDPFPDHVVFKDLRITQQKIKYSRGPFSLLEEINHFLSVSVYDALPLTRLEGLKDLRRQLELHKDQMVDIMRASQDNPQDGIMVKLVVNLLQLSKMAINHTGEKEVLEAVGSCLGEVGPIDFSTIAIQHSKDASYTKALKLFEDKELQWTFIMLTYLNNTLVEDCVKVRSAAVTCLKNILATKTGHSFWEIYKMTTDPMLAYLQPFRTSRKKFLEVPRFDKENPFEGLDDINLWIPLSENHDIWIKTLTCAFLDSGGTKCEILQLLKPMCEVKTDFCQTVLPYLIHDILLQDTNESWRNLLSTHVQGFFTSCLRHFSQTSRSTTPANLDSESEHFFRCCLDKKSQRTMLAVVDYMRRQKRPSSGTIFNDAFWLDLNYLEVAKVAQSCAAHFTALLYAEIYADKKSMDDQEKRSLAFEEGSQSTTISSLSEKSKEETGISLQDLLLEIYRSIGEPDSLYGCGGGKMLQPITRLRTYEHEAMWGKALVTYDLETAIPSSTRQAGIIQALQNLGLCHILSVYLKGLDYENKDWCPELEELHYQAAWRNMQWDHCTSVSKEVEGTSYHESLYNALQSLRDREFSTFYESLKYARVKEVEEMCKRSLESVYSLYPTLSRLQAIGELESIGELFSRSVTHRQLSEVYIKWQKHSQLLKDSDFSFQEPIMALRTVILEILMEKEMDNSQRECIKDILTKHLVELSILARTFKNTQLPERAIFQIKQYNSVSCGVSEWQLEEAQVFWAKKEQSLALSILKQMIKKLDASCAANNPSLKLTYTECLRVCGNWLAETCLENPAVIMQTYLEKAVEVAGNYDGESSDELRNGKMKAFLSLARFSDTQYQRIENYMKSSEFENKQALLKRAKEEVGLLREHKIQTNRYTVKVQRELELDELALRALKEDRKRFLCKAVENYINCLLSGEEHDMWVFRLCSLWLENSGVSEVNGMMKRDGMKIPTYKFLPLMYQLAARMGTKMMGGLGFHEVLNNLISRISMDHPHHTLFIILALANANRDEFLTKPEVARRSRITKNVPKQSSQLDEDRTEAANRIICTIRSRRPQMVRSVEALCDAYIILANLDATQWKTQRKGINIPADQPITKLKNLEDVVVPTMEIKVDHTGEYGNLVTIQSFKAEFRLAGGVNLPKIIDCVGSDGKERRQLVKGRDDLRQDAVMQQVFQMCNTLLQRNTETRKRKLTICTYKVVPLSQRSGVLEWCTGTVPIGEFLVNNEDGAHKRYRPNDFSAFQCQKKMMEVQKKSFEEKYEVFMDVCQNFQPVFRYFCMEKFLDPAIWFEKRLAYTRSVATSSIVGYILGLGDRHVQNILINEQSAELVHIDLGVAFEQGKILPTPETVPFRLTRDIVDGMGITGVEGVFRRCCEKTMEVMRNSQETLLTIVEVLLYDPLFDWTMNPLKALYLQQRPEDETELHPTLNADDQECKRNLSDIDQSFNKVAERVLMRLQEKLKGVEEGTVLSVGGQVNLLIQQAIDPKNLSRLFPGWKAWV
Type: biochemical
Outline: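 Immunoprecipitated HeLa nuclear ATM (C-terminal anti-sera) with GSTp53N66 substrate in Hepes pH 7.4 buffer with MgCl2/MnCl2; inhibitor preincubated 10 min at 37 °C, then Na-ATP added, 1 h at 37 °C.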
Note: tested normally from 100 µM down to 0.1 nM.

IC50 [nM] | SMILES
< 200 | O=C(c1ccco1)N1CCN(CCOc2ccc3c(c2)Sc2cccc(-c4cc(=O)cc(N5CCOCC5)o4)c2S3)CC1 [Compound 395]
< 200 | CN(CCOc1ccc2c(c1)Sc1cccc(-c3cc(=O)cc(N4CCOCC4)o3)c1S2)CCc1ccccn1 [Compound 398]
< 200 | O=c1cc(-c2cccc3c2Sc2ccc(OCCN4CCN(c5ccccn5)CC4)cc2S3)oc(N2CCOCC2)c1 [Compound 399]
< 200 | O=c1cc(-c2cccc3c2Sc2ccc(OCCN4CCOCC4)cc2S3)oc(N2CCOCC2)c1 [Compound 403]
< 200 | O=C(COc1ccc2c(c1)Sc1cccc(-c3cc(=O)cc(N4CCOCC4)o3)c1S2)NC1CCC1 [Compound 405]
< 200 | CCCCNC(=O)COc1ccc2c(c1)Sc1cccc(-c3cc(=O)cc(N4CCOCC4)o3)c1S2 [Compound 407]
< 200 | N#CCNC(=O)COc1ccc2c(c1)Sc1cccc(-c3cc(=O)cc(N4CCOCC4)o3)c1S2 [Compound 409]
< 200 | O=C(COc1ccc2c(c1)Sc1cccc(-c3cc(=O)cc(N4CCOCC4)o3)c1S2)NC(CO)(CO)CO [Compound 410]
< 200 | O=C(COc1ccc2c(c1)Sc1cccc(-c3cc(=O)cc(N4CCOCC4)o3)c1S2)NC(CO)CO [Compound 411]
< 200 | O=C(COc1ccc2c(c1)Sc1cccc(-c3cc(=O)cc(N4CCOCC4)o3)c1S2)N1CCN(C(=O)c2ccco2)CC1 [Compound 414]
< 200 | NC(=O)C1CCN(C(=O)COc2ccc3c(c2)Sc2cccc(-c4cc(=O)cc(N5CCOCC5)o4)c2S3)CC1 [Compound 416]
< 200 | O=C(COc1ccc2c(c1)Sc1cccc(-c3cc(=O)cc(N4CCOCC4)o3)c1S2)N1CCSCC1 [Compound 417]

Continued, molecule first:

SMILES | IC50 [nM]
CC(=O)N1CCN(CCC(=O)Nc2ccc3c(c2)Cc2cccc(-c4cc(=O)cc(N5CCOCC5)o4)c2S3)CC1 [Compound 349] | < 200
CC(C)N1CCN(CCC(=O)Nc2ccc3c(c2)Cc2cccc(-c4cc(=O)cc(N5CCOCC5)o4)c2S3)CC1 [Compound 351] | < 200
CCN1CCN(CCC(=O)Nc2ccc3c(c2)Cc2cccc(-c4cc(=O)cc(N5CCOCC5)o4)c2S3)CC1 [Compound 352] | < 200
O=C(CCN1CCN(c2ccccn2)CC1)Nc1ccc2c(c1)Cc1cccc(-c3cc(=O)cc(N4CCOCC4)o3)c1S2 [Compound 353] | < 200
O=C(CCN1CCN(c2ccc(F)cc2)CC1)Nc1ccc2c(c1)Cc1cccc(-c3cc(=O)cc(N4CCOCC4)o3)c1S2 [Compound 354] | < 200
O=C(CCN1CCN(c2ncccn2)CC1)Nc1ccc2c(c1)Cc1cccc(-c3cc(=O)cc(N4CCOCC4)o3)c1S2 [Compound 355] | < 200
CN(C)CCN1CCN(CCC(=O)Nc2ccc3c(c2)Cc2cccc(-c4cc(=O)cc(N5CCOCC5)o4)c2S3)CC1 [Compound 356] | < 200
C[C@@H]1CN(CCOc2ccc3c(c2)Sc2cccc(-c4cc(=O)cc(N5CCOCC5)o4)c2S3)C[C@H](C)O1 [Compound 359] | < 200
CN1CCN(CCOc2ccc3c(c2)Sc2cccc(-c4cc(=O)cc(N5CCOCC5)o4)c2S3)CC1 [Compound 361] | < 200
O=c1cc(-c2cccc3c2Sc2ccc(OCCNCc4ccncc4)cc2S3)oc(N2CCOCC2)c1 [Compound 366] | < 200
O=c1cc(-c2cccc3c2Sc2ccc(OCCNCCO)cc2S3)oc(N2CCOCC2)c1 [Compound 367] | < 200
CC(=O)N1CCN(CCOc2ccc3c(c2)Sc2cccc(-c4cc(=O)cc(N5CCOCC5)o4)c2S3)CC1 [Compound 378] | < 200
O=c1cc(-c2cccc3c2Sc2ccc(OCCNCC(F)(F)F)cc2S3)oc(N2CCOCC2)c1 [Compound 379] | < 200
O=c1cc(-c2cccc3c2Sc2ccc(OCCNCCc4ccccn4)cc2S3)oc(N2CCOCC2)c1 [Compound 381] | < 200
CCCCNCCOc1ccc2c(c1)Sc1cccc(-c3cc(=O)cc(N4CCOCC4)o3)c1S2 [Compound 382] | < 200
CCCNCCOc1ccc2c(c1)Sc1cccc(-c3cc(=O)cc(N4CCOCC4)o3)c1S2 [Compound 383] | < 200
